Test results reported in patent US20210283116A1, “METHODS OF TREATING ACUTE KIDNEY INJURY” (Mitobridge, Inc., priority 2016, published 2021).

Tests used:
[1] = system: rat model of acute kidney injury (ischemia reperfusion injury); assay: Ischemia reperfusion injury rat model of acute kidney injury, Compound A intravenously; type: in vivo, Sprague-Dawley male rats
Protocol: Animals, surgery and dosing: Sprague-Dawley male rats approximately 280-300 g, with ad libitum access to standard feed and water were used in these experiments. Rats (n=8/group) were anesthetized with isoflurane and placed ventrally on a temperature controlled heated surgical platform. A skin incision was made on the dorsal surface, exposing both kidneys through flank incisions. Vascular clips were applied to both renal pedicles and occlusion lasted 45 minutes. After 45 min, the clips were removed, kidneys were monitored for successful reperfusion, and surgical sites were then sutured. The sham group (n=4 rats) was subjected to similar surgical procedures, except that the occluding clamps were not applied. Compound A was formulated as a fresh daily clear solution of the hydrate of the meglumine salt of Compound A (1.5 Molar equivalent of Compound A) in 5% dextrose. Compound A was dosed IV via tail vein at 3 mg/kg, 1 mg/kg or 0.3 mg/kg 4 hours after animals awoke from surgery and sham surgery and IRI control animals were similarly dosed with vehicle.
Blood collection: Twenty-four (24) hours after reperfusion, blood was collected in K2 EDTA tubes by retro-orbital bleeding from all groups under mild isoflurane anesthesia. Plasma was separated by centrifugation at 3000 rpm for 10 minutes at 4° C. Urine collection: all study animal groups were placed in metabolic cages immediately after surgery recovery and urine was collected for 24 or 48 hours. Urine volume was carefully measured and then was centrifuged at 3000 rpm for 10 min at 4° C. to remove sediments. Plasma and urine creatinine were analyzed using a fully automated clinical biochemistry analyzer (Siemens Dimension® Xpand® Plus Integrated Chemistry System). Urinary NGAL was analyzed using a BioPorto ELISA kit. Creatinine clearance was calculated as follows: […]
GraphPad Prism software, Version 6.05 was used for graphing and statistical testing. Creatinine was tested for normal distribution in all groups via a D'Agostino-Pearson omnibus normality test and a Shapiro-Wilk normality test. Statistical significance (p<0.05) is determined by an ordinary One-way ANOVA followed by Dunnett's multiple comparison using the […] as the control group. **p<0.01, ***p<0.001 and ****p<0.0001 vs. IR-Vehicle.

[2] = system: rat model of acute kidney injury (ischemia reperfusion injury); assay: Ischemia reperfusion injury rat model of acute kidney injury, Compound B orally; type: in vivo, Sprague-Dawley male rats
Protocol: Animals, surgery and dosing: Sprague-Dawley male rats approximately 280-300 g, with ad libitum access to standard feed and water were used in these experiments. Rats (n=8/group) were anesthetized with isoflurane and placed ventrally on a temperature controlled heated surgical platform. A skin incision was made on the dorsal surface, exposing both kidneys through flank incisions. Vascular clips were applied to both renal pedicles and occlusion lasted 45 minutes. After 45 min, the clips were removed, kidneys were monitored for successful reperfusion, and surgical sites were sutured. The sham group (n=4 rats) was subjected to similar surgical procedures, except that the occluding clamps were not applied. Compound B was formulated as a fresh daily suspension in 0.25% sodium carboxymethyl-cellulose, 0.25% Tween-80 in purified water. Compound B was dosed orally at 30 mg/kg 4 hours after animals awoke from surgery and sham surgery and IRI control animals were similarly dosed with vehicle. Blood collection: Twenty-four (24) hours after reperfusion, blood was collected in K2 EDTA tubes by retro-orbital bleeding from all groups under mild isoflurane anesthesia. Plasma was separated by centrifugation at 3000 rpm for 10 minutes at 4° C. Urine collection: all study animal groups were placed in metabolic cages immediately after surgery recovery and urine was collected for 24 hours. Urine volume was carefully measured and then was centrifuged at 3000 rpm for 10 min at 4° C. to remove sediments. Plasma and urine creatinine were analyzed using a fully automated clinical biochemistry analyzer (Siemens Dimension® Xpand® Plus Integrated Chemistry System). Creatinine clearance was calculated as follows: […]
GraphPad Prism software, Version 6.05 was used for graphing and statistical testing. Data was tested for normal distribution in all groups via a D'Agostino-Pearson omnibus normality test and a Shapiro-Wilk normality test. […] Statistical significance is determined by p<0.05 of IRI-vehicle compared to compound treated groups. **p<0.01 and ***p<0.001 vs. IR-Vehicle. […]

SMILES | kidney function (creatinine clearance) ([1]; 0.3 mg/kg, 1 mg/kg or 3 mg/kg IV 4 hours after ischemia, 24 hours after kidney injury, vs. IR-Vehicle) | plasma creatinine ([1]; 0.3 mg/kg, 1 mg/kg or 3 mg/kg IV 4 hours after ischemia, 24 hours after reperfusion, vs. IR-Vehicle) | early kidney injury biomarker NGAL (urinary) ([1]; 0.3 mg/kg, 1 mg/kg or 3 mg/kg IV 4 hours after ischemia, 48 hours after kidney injury, vs. IR-Vehicle) | kidney injury ([1]; dosed IV 4 hours after ischemia, hydrate of meglumine salt in 5% dextrose) | plasma creatinine ([2]; 30 mg/kg orally 4 hours after ischemia, 24 hours after reperfusion, vs. IR-Vehicle) | kidney function (creatinine clearance) ([2]; 30 mg/kg orally 4 hours after ischemia, 24 hours urine collection, vs. IR-Vehicle) | kidney injury ([2]; 30 mg/kg orally, dosed 4 hours after ischemia)
Cc1cnc(-c2ccc(C(F)(F)F)nc2)n1Cc1ccccc1OCCC[C@@H](C)CC(=O)O [Compound A, (R)-3-methyl-6-(2-((5-methyl-2-(6-(trifluoromethyl)pyridin-3-yl)-1H-imidazol-1-yl)methyl)phenoxy)hexanoic acid] | improves kidney function | significantly reduces plasma creatinine | reduces the early kidney injury biomarker NGAL | reduces kidney injury |  |  | 
Cc1cc(SCc2nn(-c3ccc(C(F)(F)F)cc3)nc2C)ccc1OCC(=O)O [Compound B] |  |  |  |  | reduces plasma creatinine | improves kidney function | reduces kidney injury
